In EP0597303A2, “Cephalosporin derivatives” (priority 1992, dated 1994):
Structures can show the parent of a compound that is named as a salt.

What was measured:
Assay in all cases: MIC, Agar (Mueller Hinton) Dilution Method
Format in all cases: cell-based
Bacillus subtilis 558 = details: Bacillus subtilis 558; Gram Positive and Others; read-out: MIC
Text: (§1) The in vitro activity of the compounds of formula I of the present invention as measured by the Minimum Inhibitory Concentration (MIC) in micrograms/ml utilizing the Agar (Mueller Hinton) Dilution Method against a variety of Gram-positive and Gram-negative organisms, is set forth in Table 1.

E. coli 1269B = details: Escherichia coli, Gram Negative
Text: as §1

E. coli 1573E = details: Escherichia coli; E. coli 1573E; Gram Negative; read-out: MIC
Text: as §1

E. coli 2722B = details: Escherichia coli, Gram Negative
Text: as §1

E. coli 4 = details: Escherichia coli, 4
Text: as §1

E. coli ATCC 25922 = details: Escherichia coli, ATCC25922; E. coli ATCC 25922; Gram Negative; read-out: MIC
Text: as §1

E. coli B = details: Escherichia coli, Gram Negative
Text: as §1

E. coli HMS1 = details: Escherichia coli, HMS1
Text: as §1

E. coli Leo HA2M4 = details: Escherichia coli, LEOHA2M4
Text: as §1

Ent. faecalis ATCC 29212 = details: Enterococcus faecalis, ATCC29212, Gram Positive and Others
Text: as §1

Escherichia coli 257 = details: Gram Negative
Text: as §1

Mycobacterium phlei 78 = details: Mycolicibacterium phlei, 78
Text: as §1

Prot. mirabilis 190 = details: Proteus mirabilis; Prot. mirabilis 190; Gram Negative; read-out: MIC
Text: as §1

Prot. mirabilis 503-1136 = details: Proteus mirabilis, 5031136
Text: as §1

Prot. mirabilis 620A = details: Proteus mirabilis, 620A
Text: as §1

Prot. mirabilis 90 = details: Proteus mirabilis; Prot. mirabilis 90; Gram Negative; read-out: MIC
Text: as §1

Prot. vulgaris 100 = details: Proteus vulgaris, Gram Negative
Text: as §1

Prot. vulgaris 1028 BC = details: Proteus vulgaris, 1028BC
Text: as §1

Ps. aeruginosa 1937E = details: Pseudomonas aeruginosa, Gram Negative
Text: as §1

Ps. aeruginosa 56-1B = details: Pseudomonas aeruginosa, 561B; Ps. aeruginosa 56-1B; Gram Negative; read-out: MIC
Text: as §1

Ps. aeruginosa 56M = details: Pseudomonas aeruginosa, Gram Negative
Text: as §1

Ps. aeruginosa 765 = details: Pseudomonas aeruginosa, Gram Negative
Text: as §1

[1] = system: Ps. aeruginosa ATCC 27853; details: Pseudomonas aeruginosa, ATCC27853, Gram Negative
Text: as §1

Ps. aeruginosa K799/WT = details: Pseudomonas aeruginosa, Gram Negative
Text: as §1

Ser. marcescens 1071 = details: Serratia marcescens, 1071
Text: as §1

Ser. marcescens MA = details: Serratia marcescens, Gram Negative
Text: as §1

Staph. aureus 1059B = details: Staphylococcus aureus, 1059B
Text: as §1

Staph. aureus 3037B = details: Staphylococcus aureus, 3037B
Text: as §1

Staph. aureus 3647B = details: Staphylococcus aureus, 3647B
Text: as §1

Staph. aureus 404 = details: Staphylococcus aureus, 404
Text: as §1

Staph. aureus 67 = details: Staphylococcus aureus; Staph. aureus 67; methicillin-resistant; Gram Positive and Others; read-out: MIC
Text: as §1

Staph. aureus 753 = details: Staphylococcus aureus, 753
Text: as §1

Staph. aureus 82 = details: Staphylococcus aureus, 82
Text: as §1

Staph. aureus ATCC 25923 = details: Staphylococcus aureus, ATCC25923, Gram Positive and Others
Text: as §1

Staph. aureus ATCC 29213 = details: Staphylococcus aureus, ATCC29213
Text: as §1

[2] = system: Str. pneumoniae N82-012-MC; details: Streptococcus pneumoniae, N82012MC; Str. pneumoniae N82-012-MC; Gram Positive and Others; read-out: MIC
Text: as §1

[3] = system: Streptococcus pneumoniae 6303; details: Streptococcus pneumoniae 6303; Gram Positive and Others; read-out: MIC
Text: as §1

Xan. maltophilia 2897B = details: Stenotrophomonas maltophilia, Gram Negative
Text: as §1

Compound: N#CCC(=O)N[C@@H]1C(=O)N2C(C(=O)O)=C(COC(=O)N[C@@H]3CCN(c4c(F)cc5c(=O)c(C(=O)O)cn(C6CC6)c5c4F)C3)CS[C@H]12 [Formula Ibb, [6R-[3(R^*), 6 alpha, 7 beta]]-3-[[[[[1-(3-Carboxy-1-cyclopropyl-6,8-difluoro-1,4-dihydro-4-oxo-7-quinolinyl-3-pyrrolidinyi]amino]carbonyl]oxy]methyL]-7-[(cyanoacetyl)amino]-8-oxo-5-thia-1-azabicyclo[4.2.0]oct-2-ene-2-carboxylic acid monosodium salt]
- MIC (Bacillus subtilis 558): 0.0625 µg/mL
- MIC (E. coli 1269B): 0.0625 µg/mL
- MIC (E. coli 1573E): 0.0625 µg/mL
- MIC (E. coli 2722B): ≤ 0.0156 µg/mL
- MIC (E. coli 4): 0.125 µg/mL
- MIC (E. coli ATCC 25922): 0.0625 µg/mL
- MIC (E. coli B): 0.0313 µg/mL
- MIC (E. coli HMS1): 0.0313 µg/mL
- MIC (E. coli Leo HA2M4): 0.0313 µg/mL
- MIC (Ent. faecalis ATCC 29212): 2 µg/mL
- MIC (Escherichia coli 257): 0.125 µg/mL
- MIC (Mycobacterium phlei 78): 0.125 µg/mL
- MIC (Prot. mirabilis 190): 0.0625 µg/mL
- MIC (Prot. mirabilis 503-1136): 0.125 µg/mL
- MIC (Prot. mirabilis 620A): 0.125 µg/mL
- MIC (Prot. mirabilis 90): 0.5 µg/mL
- MIC (Prot. vulgaris 100): 0.0625 µg/mL
- MIC (Prot. vulgaris 1028 BC): 0.0313 µg/mL
- MIC (Ps. aeruginosa 1937E): 1 µg/mL
- MIC (Ps. aeruginosa 56-1B): 0.5 µg/mL
- MIC (Ps. aeruginosa 56M): 0.25 µg/mL
- MIC (Ps. aeruginosa 765): 2 µg/mL
- MIC [1]: 2 µg/mL
- MIC (Ps. aeruginosa K799/WT): 1 µg/mL
- MIC (Ser. marcescens 1071): 0.125 µg/mL
- MIC (Ser. marcescens MA): 8 µg/mL
- MIC (Staph. aureus 1059B): 0.125 µg/mL
- MIC (Staph. aureus 3037B): 0.125 µg/mL
- MIC (Staph. aureus 3647B): 0.125 µg/mL
- MIC (Staph. aureus 404): 0.125 µg/mL
- MIC (Staph. aureus 67): 0.5 µg/mL
- MIC (Staph. aureus 753): 0.125 µg/mL
- MIC (Staph. aureus 82): 0.125 µg/mL
- MIC (Staph. aureus ATCC 25923): 0.25 µg/mL
- MIC (Staph. aureus ATCC 29213): 0.125 µg/mL
- MIC [2]: 0.25 µg/mL
- MIC [3]: 0.0625 µg/mL
- MIC (Xan. maltophilia 2897B): 0.5 µg/mL
